Structures can show the parent of a compound that is named as a salt.
What follows are compounds tested on Plasmodium falciparum parasite (assay: Whole cell assay: whole cell activity against the parasite). Details: not given.
Type: cell-based
From the text: Compounds can be evaluated for whole cell actvity against the Plasmadium falciparum parasite according to the procedure described in Sijwali S. and Rosenthal P. J., (2004) Proceedings of the National Academy of Sciences of the United States of America (PNAS) 101(13), 4384-4389 (see in particular "Measurement of Parasite Growth rates and Inhibitor Sensitivity" on page 4385); IC50 values can be calculated as described in Singh A. and Rosenthal P. J., (2001) Antimicrobial Agents and Chemotherapy 45(3), 949-951 (see in particular page 950, first column); synchronised parasites can be prepared as described in Divo A. A. et al., (1985) Protozool. 32, 59-64. 3) In vitro models to evaluate activity against bone metastasis

First: CN1CCN(C2CCN(Cc3ccc(C(=O)NN(c4nc(C#N)ncc4Cl)C4CCCCC4)cc3)CC2)CC1 [Example 40, N'-(5-chloro-2-cyano-4-pyrimidinyl)-N'-cyclohexyl-4-{[4-(4-methyl-1-piperazinyl)-1-piperidinyl]methyl}benzohydrazide]
Second: CC(=O)N1CCC(N(NC(=O)OC(C)(C)C)c2nc(C#N)ncc2Br)CC1 [Example 79, 1,1-dimethylethyl 2-(1-acetyl-4-plperidinyl)-2-(5-bromo-2-cyano-4-pyrimidinyl)hydrazinecarboxylate]
The IC50 of the first is lower: 2.5 to 15 nM for the first, 15 to 150 nM for the second. The first is the more potent here.

Same assay, conditions: Plasmodium falciparum

`CN1CCCC(CN2CCN(Cc3cccc(C(=O)NN(c4nc(C#N)ncc4Br)C4CCCC4)c3)CC2)C1` (stereo not drawn) [Example 14, N'-(5-bromo-2-cyano-4-pyrimidinyl)-N'-cyclopentyl-3-({4-[(1-methyl-3-piperidinyl)methyl]-1-piperazinyl}methyl)benzohydrazide trifluoroacetate] and `CN1CCCC(CN2CCN(Cc3cccc(C(=O)NN(c4nc(C#N)ncc4Br)C4CCCCC4)c3)CC2)C1` (stereo not drawn) [Example 27, N'-(5-bromo-2-cyano-4-pyrimidinyl)-N'-cyclohexyl-3-({4-[(1-methyl-3-piperidinyl)methyl]-1-piperazinyl}methyl)benzohydrazide trifluoroacetate] fall in the same range of IC50: 2.5 to 15 nM for the first, 2.5 to 15 nM for the second.

First: CN1CCCC(CN2CCN(Cc3ccc(C(=O)NN(c4nc(C#N)ncc4Br)C4CCOCC4)cc3)CC2)C1 (stereo not drawn) [Example 31, N'-(5-Bromo-2-cyano-4-pyrimidinyl)-4-({4-[(1-methyl-3-pipendinyl)methyl]-1-piperazinyl}methyl)-N'-(tetrahydro-2H-pyran-4-yl)benzohydrazide trifluoroacetate]
Second: CN1CCCC(CN2CCN(Cc3ccc(C(=O)NN(c4nc(C#N)ncc4Br)C4CCCCC4)cc3)CC2)C1 (stereo not drawn) [Example 25, N'-(5-bromo-2-cyano-4-pyrimidinyl)-N'-cyclohexyl-4-({4-[(1-methyl-3-piperidinyl)methyl]-1-piperazinyl}methyl)benzohydrazide trifluoroacetate]
The IC50 of the first is higher: 15 to 150 nM for the first, 2.5 to 15 nM for the second. The second is the more potent here.

`CN(CCC1OCCO1)Cc1ccc(C(=O)NN(c2nc(C#N)ncc2Cl)C2CCCC2)cc1` [Example 61, N'-(5-chloro-2-cyano-4-pyrimidinyl)-N'-cyclopentyl-4-{[[2-(1,3-dioxolan-2-yl)ethyl](methyl)amino]methyl}benzohydrazide trifluoroacetate] and `CN(CCO)Cc1ccc(C(=O)NN(c2nc(C#N)ncc2Cl)C2CCCC2)cc1` [Example 58, N'-(5-chloro-2-cyano-4-pyrimidinyl)-N'-cyclopentyl-4-{[(2-hydroxyethy)(methyl)amino]methyl}benzohydrazide trifluoroacetate] fall in the same range of IC50: 15 to 150 nM for the first, 15 to 150 nM for the second.

`N#Cc1ncc(Br)c(N(NC(=O)c2ccc(CN3CCC(O)CC3)cc2)C2CCCCC2)n1` [Example 21, N'-(5-bromo-2-cyano-4-pyrimidinyl)-N'-cyclohexyl-4-[(4-hydroxy-1-piperidinyl)methyl]benzohydrazide trifluoroacetate] and `N#Cc1ncc(Br)c(N(NC(=O)c2ccc(CN3CCC(N4CCOCC4)CC3)cc2)C2CCCCC2)n1` [Example 18, N'-(5-bromo-2-cyano-4-pyrimidinyl)-N'-cyclohexyl-4-{[4-(4-morpholinyl)-1-piperidinyl]methyl}benzohydrazide trifluoroacetate] fall in the same range of IC50: 15 to 150 nM for the first, 15 to 150 nM for the second.

Compared with `CN1CCN(Cc2ccc(-c3cncc(C(=O)NN(c4nc(C#N)ncc4Br)C4CCCC4)c3)cc2)CC1` [Example 45, N'-(5-bromo-2-cyano-4-pyrimidinyl)-N'-cyclopentyl-5-{4-[(4-methyl-1-piperazinyl)methyl]phenyl}-3-pyridinecarbohydrazide trifluoroacetate], `CN1CCN(Cc2cccc(-c3cncc(C(=O)NN(c4nc(C#N)ncc4Br)C4CCCCC4)c3)c2)CC1` [Example 47, N'-(5-bromo-2-cyano-4-pyrimidinyl)-N'-cyclohexyl-5-{3-[(4-methyl-1-piperazinyl)methyl]phenyl}-3-pyridinecarbohydrazide trifluoroacetate] is lower in IC50: 15 to 150 nM for the first, 2.5 to 15 nM for the second. The second is the more potent here.

`CCN(C)Cc1ccc(C(=O)NN(c2nc(C#N)ncc2Cl)C2CCCC2)cc1` [Example 74, N'-(5-chloro-2-cyano-4-pyrimidinyl)-N'-cyclopentyl-4-{[ethyl(methyl)amino]methyl}benzohydrazide trifluoroacetate] and `CCCN(C)Cc1ccc(C(=O)NN(c2nc(C#N)ncc2Cl)C2CCCC2)cc1` [Example 55, N'-(5-chloro-2-cyano-4-pyrlmidinyl)-N'-cycyopentyl-4-{[methyl(propyl)amino]methyl}benzohydrazide trifluoroacetate] fall in the same range of IC50: 15 to 150 nM for the first, 15 to 150 nM for the second.

`CN(Cc1ccc(C(=O)NN(c2nc(C#N)ncc2Cl)C2CCCC2)cc1)C(C)(C)Cc1ccccc1` [Example 71, N'-(5-chloro-2-cyano-4-pyrimidinyl)-N'-cyclopentyl-4-{[(1,1-dimethyl-2-phenylethyl)(methyl)amino]methyl}benzohydrazide trifluoroacetate] and `CN(CCCc1ccccc1)Cc1ccc(C(=O)NN(c2nc(C#N)ncc2Cl)C2CCCC2)cc1` [Example 64, N'-(5-chloro-2-cyano-4-pyrimidinyl)-N'-cyclopentyl-4-{[methyl(3-phenylpropyl)amino]methyl}benzohydrazide trifluoroacetate] fall in the same range of IC50: 15 to 150 nM for the first, 15 to 150 nM for the second.

Compared with `CN(Cc1ccc(C(=O)NN(c2nc(C#N)ncc2Cl)C2CCCC2)cc1)C1CCCCC1` [Example 53, N'-(5-chloro-2-cyano-4-pyrimidinyl)-4-{[cyclohexyl(methyl)amino]methyl}-N'-cyclopentylbenzohydrazide trifluoroacetate], `CN(Cc1ccc(C(=O)NN(c2nc(C#N)ncc2Cl)C2CCCC2)cc1)C1CCC2(CC1)OCC(C)(C)CO2` [Example 65, N'-(5-chloro-2-cyano-4-pyrimidinyl)-N'-cyclopentyl-4-{[(3,3-dimethyl-1,5-dioxaspiro[5.5]undec-9-yl)(methyl)amino]methyl}benzohydrazide trifluoroacetate] is higher in IC50: 2.5 to 15 nM for the first, 15 to 150 nM for the second. The first is the more potent here.

Compared with `CCN(Cc1ccc(C(=O)NN(c2nc(C#N)ncc2Cl)C2CCCC2)cc1)C(C)C` [Example 68, N'-(5-chloro-2-cyano-4-pyrimidinyl)-N'-cyclopentyl-4-{[ethyl(1-methylethyl)amino]methyl}benzohydrazide trifluoroacetate], `CCN(CC)Cc1ccc(C(=O)NN(c2nc(C#N)ncc2Cl)C2CCCC2)cc1` [Example 66, N'-(5-chloro-2-cyano-4-pyrimidinyl)-N'-cyclopentyl-4-[(diethylamino)methyl]benzohydrazide trifluoroacetate] is higher in IC50: 2.5 to 15 nM for the first, 15 to 150 nM for the second. The first is the more potent here.

`CCCCCCN(C)Cc1ccc(C(=O)NN(c2nc(C#N)ncc2Cl)C2CCCC2)cc1` [Example 56, N'-(5-chloro-2-cyano-4-pyrimidinyl)-N'-cyclopentyl-4-{[hexyl(methyl)amino]methyl}benzohydrazide trifluoroacetate] and `CN(Cc1ccc(C(=O)NN(c2nc(C#N)ncc2Cl)C2CCCC2)cc1)CC(O)CO` (stereo not drawn) [Example 76, N'-(5-chloro-2-cyano-4-pyrimidinyl)-N'-cyclopentyl-4-{[(2,3-dihydroxypropyl)(methyl)amino]methyl}benzohydrazide trifluoroacetate] fall in the same range of IC50: 15 to 150 nM for the first, 15 to 150 nM for the second.

`N#Cc1ncc(Br)c(N(NC(=O)c2cccc(CN3CCC(N4CCOCC4)CC3)c2)C2CCCCC2)n1` [Example 24, N'-(5-bromo-2-cyano-4-pyrimidinyl)-N'-cyclohexyl-3-{[4-(4-morpholinyl)-1-piperidinyl]methyl}benzohydrazide trifluoroacetate] and `CN1CCN(C2CCN(Cc3ccc(C(=O)NN(c4nc(C#N)ncc4Br)C4CCCCC4)cc3)CC2)CC1` [Example 17, N'-(5-bromo-2-cyano-4-pyrimidinyl)-N'-cyclohexyl-4-{[4-(4-methyl-1-piperazinyl)-1-piperidinyl]methyl}benzohydrazide trifluoroacetate] fall in the same range of IC50: 2.5 to 15 nM for the first, 2.5 to 15 nM for the second.

Compared with `CN(Cc1ccc(C(=O)NN(c2nc(C#N)ncc2Cl)C2CCCC2)cc1)C(C)(C)C` [Example 73, N'-(5-chloro-2-cyano-4-pyrimidinyl)-N'-cyclopentyl-4-{[(1,1-dimethylethyl)(methyl)amino]methyl}benzohydrazide trifluoroacetate], `CN1CCN(Cc2ccc(C(=O)NN(c3nc(C#N)ncc3Cl)C3CCOCC3)cc2)CC1` [Example 67, N'-(5-chloro-2-cyano-4-pyrimidinyl)-4-[(4-methyl-1-piperazinyl)methyl]-N'-(tetrahydro-2H-pyran-4-yl)benzohydrazide trifluoroacetate] is higher in IC50: 2.5 to 15 nM for the first, 15 to 150 nM for the second.

First: C[C@@H]1CCC[C@H]1N(NC(=O)c1ccc(CN2CCN(C)CC2)cc1)c1nc(C#N)ncc1Br (racemic) [Example 3, N'-(5-bromo-2-cyano-4-pyrimidinyl)-N'-[(1R,2R+1S,2S)-2-methylcyclopentyl]-4-[(4-methyl-1-piperazinyl)methyl]benzohydrazide trifluoroacetate]
Second: CN1CCN(Cc2ccc(C(=O)NN(CC(C)(C)C)c3nc(C#N)ncc3Br)cc2)CC1 [comparative Example 39, N'-(5-bromo-2-cyano-4-pyrimidinyl)-N'-(2,2-dimethylpropyl)-4-[(4-methyl-1-piperazinyl)methyl]benzohydrazide trifluoroacetate, reference compound]
The IC50 of the first is lower: 2.5 to 15 nM for the first, greater than 400 nM for the second. The first is the more potent here.

`CN1CCN(Cc2ccc(-c3ccc(C(=O)NN(c4nc(C#N)ncc4Br)C4CCCCC4)cn3)cc2)CC1` [Example 44, N'-(5-bromo-2-cyano-4-pyrimidinyl)-N'-cyclohexyl-6-{4-[(4-methyl-1-piperazinyl)methyl]phenyl}-3-pyridinecarbohydrazide trifluoroacetate] and `CCCN1CCN(c2ccc(C(=O)NN(c3nc(C#N)ncc3Br)C3CCCCC3)cc2)CC1` [Example 80, N'-(5-bromo-2-cyano-4-pyrimidinyl)-N'-cyclohexyl-4-(4-propyl-1-piperazinyl)benzohydrazide trifluoroacetate] fall in the same range of IC50: 15 to 150 nM for the first, 15 to 150 nM for the second.

Source: patent EP2030621A1, “Novel substituted pyrimidines as cysteine protease inhibitors” (GLAXO GROUP LIMITED, priority 2007, dated 2009)
